According to ChEMBL document CHEMBL1201862, “PubChem BioAssay data set” (2004):
Calls of active or inactive are those of the source.

Key:
[1] = HEp-2 cell cytotoxicity, dose response, cytotoxicity control for RSV inhibitor project, HTS (AID 2410); assay type: functional; settings: human respiratory syncytial virus
[2] = target: T1, Ubiquitin-conjugating enzyme E2 N (Homo sapiens, UniProt P61088); assay type: functional;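 note: Dose-response confirmation in a TR-FRET assay detecting UBC13-driven polyubiquitin chain formation, inhibition measured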
T1 sequence (P61088 whole entry): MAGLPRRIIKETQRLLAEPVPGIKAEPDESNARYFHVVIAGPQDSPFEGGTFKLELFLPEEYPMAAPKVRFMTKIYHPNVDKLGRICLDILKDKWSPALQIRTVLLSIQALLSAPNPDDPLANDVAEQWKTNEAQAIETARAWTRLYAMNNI

Vero = assay: cells; assay type: functional, cell-based; settings: Chlorocebus sabaeus
[3] = Luminescence Cell-Based Dose Confirmation HTS to Identify Activators of 5'UTR Stem-Loop Driven Alpha-Synuclein mRNA Translation in H4 Neuroglioblastoma Cells. [Related pubchem assays: 1829 (Project Summary), 1814 (Primary HTS)]; assay type: functional
[4] = Luminescence Cell-Based Dose Response HTS to Identify Activators of Luciferase Translation or Activity in H4 […] Cells. [Related pubchem assays: 1829 (Project Summary), 1814 (Primary HTS)]; assay type: functional
H4 = assay: Luminescence Cell-Based Dose Response HTS to Identify Activators of 5'UTR Stem-Loop Driven Prion Protein mRNA Translation in H4 Neuroglioblastoma Cells. [Related pubchem assays: 1829 (Project Summary), 1814 (Primary HTS)]; assay type: functional; settings: Homo sapiens
[5] = target: G-protein coupled receptor 55 (Homo sapiens, UniProt Q9Y2T6); assay: GPR55 agonists via beta-arrestin recruitment, primary screen, imaging, U2OS cells, beta-arrestin-GFP redistribution (AID 1961); assay type: functional
Large T antigen = Large T antigen (Simian virus 40, UniProt P03070); assay type: functional, Betapolyomavirus macacae;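 note: Confirmatory-stage PubChem screen for compounds that inhibit SV40 T antigen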
[6] = target: DNA dC->dU-editing enzyme APOBEC-3A (Homo sapiens, UniProt P31941); assay: APOBEC3A DNA deaminase inhibitors, dose response, biochemical (AID 504722); assay type: functional
[7] = target: Glucose-6-phosphate 1-dehydrogenase (Homo sapiens, UniProt P11413); assay: human G6PD enzyme inhibitors, dose response, selectivity assay for P. falciparum G6PD inhibitor project, biochemical, fluorescence (AID 504792); assay type: functional
[8] = target: Eukaryotic translation initiation factor 4E (Mus musculus, UniProt P63073); assay: eIF4E–eIF4G protein interaction inhibitors, dose response, biochemical, TR-FRET (AID 855); assay type: functional;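 note: potency for disrupting eIF4E binding to eIF4GI seen as loss of FRET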
[9] = target: DNA dC->dU-editing enzyme APOBEC-3G (Homo sapiens, UniProt Q9HC16); assay: Dose Response confirmation of small molecule APOBEC3G DNA Deaminase Inhibitors via a fluorescence-based single-stranded DNA deaminase assay. [Related pubchem assays (depositor defined):AID493012, AID493028]; assay type: functional
[10] = cytotoxicity in HPDE-C7 cells, cell-based, fluorescence, HTS (AID 430); assay type: functional; settings: Homo sapiens
[11] = cytotoxicity in KRAS-transformed pancreatic duct cells, primary screen, cell-based, fluorescence, HTS (AID 431); assay type: functional; settings: Homo sapiens;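 note: cell line used: HPDE-C7K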
[12] = Luminescence Cell-Based Dose Retest to Confirm Inhibitors of Cancer Stem Cells. [Related pubchem assays (depositor defined):AID2717, AID2721]; assay type: functional; settings: Homo sapiens
[13] = target: T2, Microphthalmia-associated transcription factor (Homo sapiens, UniProt O75030); assay: TRPM1 promoter luciferase signal decrease, dose response, MITF inhibitor project, cell-based, SK-MEL-5, cherry-picked, set 3 (AID 493073); assay type: functional
T2 sequence (O75030 whole entry): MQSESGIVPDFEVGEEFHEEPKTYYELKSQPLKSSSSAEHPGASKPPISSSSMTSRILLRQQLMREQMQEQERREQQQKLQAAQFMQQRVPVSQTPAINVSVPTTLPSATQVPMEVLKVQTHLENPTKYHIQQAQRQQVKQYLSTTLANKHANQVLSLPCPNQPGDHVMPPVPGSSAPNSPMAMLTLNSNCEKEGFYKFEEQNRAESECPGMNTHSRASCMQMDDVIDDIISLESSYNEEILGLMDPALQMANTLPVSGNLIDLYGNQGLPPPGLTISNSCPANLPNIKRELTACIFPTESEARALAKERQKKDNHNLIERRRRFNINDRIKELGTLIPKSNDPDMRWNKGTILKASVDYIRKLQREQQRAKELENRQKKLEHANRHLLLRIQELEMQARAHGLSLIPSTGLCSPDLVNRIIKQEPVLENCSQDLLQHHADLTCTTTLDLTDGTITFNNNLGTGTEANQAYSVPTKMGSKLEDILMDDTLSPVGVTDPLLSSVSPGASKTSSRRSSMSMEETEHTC

Chain of G-protein coupled receptor 55 (Q9Y2T6 whole entry): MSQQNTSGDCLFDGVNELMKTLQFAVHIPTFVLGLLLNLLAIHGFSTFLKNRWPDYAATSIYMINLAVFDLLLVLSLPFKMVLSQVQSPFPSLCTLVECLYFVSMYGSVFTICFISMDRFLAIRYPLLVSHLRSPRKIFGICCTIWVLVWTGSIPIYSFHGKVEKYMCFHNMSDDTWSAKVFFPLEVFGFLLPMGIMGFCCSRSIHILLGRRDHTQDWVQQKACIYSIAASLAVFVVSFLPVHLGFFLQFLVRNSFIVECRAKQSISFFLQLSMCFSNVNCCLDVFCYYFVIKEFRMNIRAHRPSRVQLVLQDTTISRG
Chain of DNA dC->dU-editing enzyme APOBEC-3A (P31941 whole entry): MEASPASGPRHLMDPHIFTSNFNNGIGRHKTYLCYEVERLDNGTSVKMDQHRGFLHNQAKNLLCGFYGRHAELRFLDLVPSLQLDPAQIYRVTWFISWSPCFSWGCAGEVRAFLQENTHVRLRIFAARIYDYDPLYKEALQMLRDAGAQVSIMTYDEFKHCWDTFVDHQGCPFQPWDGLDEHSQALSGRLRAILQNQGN
Chain of DNA dC->dU-editing enzyme APOBEC-3G (Q9HC16 whole entry): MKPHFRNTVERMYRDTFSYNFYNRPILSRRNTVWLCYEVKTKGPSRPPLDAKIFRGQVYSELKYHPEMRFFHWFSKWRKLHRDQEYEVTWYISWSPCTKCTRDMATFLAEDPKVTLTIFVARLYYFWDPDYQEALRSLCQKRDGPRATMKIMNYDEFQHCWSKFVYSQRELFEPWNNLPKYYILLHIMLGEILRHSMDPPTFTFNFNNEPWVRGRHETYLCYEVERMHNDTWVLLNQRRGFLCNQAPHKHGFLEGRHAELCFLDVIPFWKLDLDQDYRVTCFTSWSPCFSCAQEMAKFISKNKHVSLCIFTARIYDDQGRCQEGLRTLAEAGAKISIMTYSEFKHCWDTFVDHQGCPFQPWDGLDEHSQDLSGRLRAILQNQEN
Chain of Glucose-6-phosphate 1-dehydrogenase (P11413 whole entry): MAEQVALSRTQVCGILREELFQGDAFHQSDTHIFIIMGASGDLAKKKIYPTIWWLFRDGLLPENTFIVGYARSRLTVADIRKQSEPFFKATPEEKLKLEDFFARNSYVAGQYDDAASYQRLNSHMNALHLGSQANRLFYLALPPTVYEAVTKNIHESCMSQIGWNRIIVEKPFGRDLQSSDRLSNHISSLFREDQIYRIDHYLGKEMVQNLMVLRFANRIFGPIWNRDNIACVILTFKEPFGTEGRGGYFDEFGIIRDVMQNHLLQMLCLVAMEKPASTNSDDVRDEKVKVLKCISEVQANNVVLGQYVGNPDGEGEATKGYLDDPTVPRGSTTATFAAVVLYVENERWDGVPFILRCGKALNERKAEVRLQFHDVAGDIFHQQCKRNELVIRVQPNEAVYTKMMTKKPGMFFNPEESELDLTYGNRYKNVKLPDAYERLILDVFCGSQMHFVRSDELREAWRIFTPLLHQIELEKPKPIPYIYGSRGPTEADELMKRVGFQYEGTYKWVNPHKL
Chain of Eukaryotic translation initiation factor 4E (P63073 whole entry): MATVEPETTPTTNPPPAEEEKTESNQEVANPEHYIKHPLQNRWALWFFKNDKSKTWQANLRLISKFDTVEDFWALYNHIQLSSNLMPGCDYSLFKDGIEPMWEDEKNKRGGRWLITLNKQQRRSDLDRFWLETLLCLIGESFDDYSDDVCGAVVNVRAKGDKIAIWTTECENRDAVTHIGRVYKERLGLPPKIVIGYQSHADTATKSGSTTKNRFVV
Chain of Large T antigen (P03070 whole entry): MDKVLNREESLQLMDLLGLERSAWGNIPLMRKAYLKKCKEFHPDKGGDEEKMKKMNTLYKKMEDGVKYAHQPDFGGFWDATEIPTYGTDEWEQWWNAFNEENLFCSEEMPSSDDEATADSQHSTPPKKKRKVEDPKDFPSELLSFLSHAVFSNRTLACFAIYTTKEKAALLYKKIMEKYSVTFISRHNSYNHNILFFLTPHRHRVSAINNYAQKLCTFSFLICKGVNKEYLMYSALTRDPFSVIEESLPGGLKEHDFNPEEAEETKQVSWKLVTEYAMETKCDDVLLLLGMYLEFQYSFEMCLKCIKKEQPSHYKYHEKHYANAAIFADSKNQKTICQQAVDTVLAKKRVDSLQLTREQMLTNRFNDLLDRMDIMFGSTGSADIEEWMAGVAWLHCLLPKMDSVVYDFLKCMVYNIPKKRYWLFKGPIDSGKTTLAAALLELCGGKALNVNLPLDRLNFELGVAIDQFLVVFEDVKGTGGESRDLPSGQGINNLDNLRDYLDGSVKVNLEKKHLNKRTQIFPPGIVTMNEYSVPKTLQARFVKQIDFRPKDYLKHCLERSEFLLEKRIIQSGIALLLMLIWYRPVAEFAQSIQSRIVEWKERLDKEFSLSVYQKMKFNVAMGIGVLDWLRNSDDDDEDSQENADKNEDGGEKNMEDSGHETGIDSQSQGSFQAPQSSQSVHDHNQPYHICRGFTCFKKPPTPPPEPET

In the case of `COc1ccccc1NC(=O)Nc1nc(C(C)(C)C)cs1`, the CC50 [1] is reported as > 50 µM (active), the IC50 [2] is reported as > 20 µM (inactive) and the IC50 (cells) is reported as 30.3 µM (active).
In the case of `CN1c2ccccc2C(C)(C)C12CC(c1ccc(S(=O)(=O)N3CCCCC3)cc1)=NO2` (stereo not drawn), the CC50 [1] is reported as 6.73 µM (active), the IC50 (Vero) is reported as 4.14 µM (active) and the IC50 (cells) is reported as 12 µM (active).
For `Clc1ccccc1-c1nc2ccccc2[nH]1`, the EC50 [3] was 0.289 µM (active), the EC50 [4] was 0.36 µM (active) and the EC50 (H4) was 13.7 µM (active). For the same molecule, the EC50 [5] was 2.24 µM (active).
For `CCN(CC)CCNC(=O)CCCCn1c(=S)[nH]c2c([nH]c3ccc(OC)cc32)c1=O`, the IC50 (Large T antigen) was 8.17 µM (active), the IC50 [6] was > 100 µM (inactive) and the IC50 [7] was > 80 µM (inactive). The IC50 [8] was > 64 µM (inactive) and the IC50 [9] was 2.5 µM (active).
With `c1csc(-c2nc3c4ccccc4c4ccccc4c3[nH]2)c1` the IC50 (cells) was 5.21 µM (active).
In the case of `O=[N+]([O-])c1cc2c(cc1/C=N/n1c(S)nnc1-c1ccccc1)OCO2`, the IC50 [6] is reported as > 100 µM (inactive) and the IC50 [9] is reported as 1.89 µM (active).
In the case of `CCOC(=O)c1c(C)oc2c(F)c(F)c(F)c(F)c2c1=O`, the EC50 [10] is reported as 1.55 µM (active), the EC50 [11] is reported as 1.49 µM (active) and the AC50 [12] is reported as 1.26 µM (active). For the same molecule, the AC50 [13] was 2.32 µM (active).
In the case of `CCN(CC)S(=O)(=O)c1ccc2c(c1)nc(CCC(=O)Nc1cccc(C(F)(F)F)c1)n2CC`, the EC50 [5] is reported as 7.88 µM (active).
